Read-outs that look alike come from different tables or passages of the source.
Tested on: lettuce
Format: in vivo, Lactuca vulgaris
Settings: arsenic in water 0 to 100 ppm
Excerpt: The arbuscular mycorrhizal spore germination and growth assay (a) consists of a glass slide (22) with a strip of blotter paper (25) of the same width as the glass slide overlain upon it. A semi-circle of gridded, nitrocellulose filter paper is laid on top of the blooter paper. Fungal spores are then placed into one or more segments of the grid, and then covered with a cover slip (not shown). The entire assembly is then held together using non-toxic retainer rings, or alternatively glued together with a non-toxic glue. When the glass slide assay is placed into the slider cartridge (21, FIG. 5) and then into the device of current invention, and deployed in the field and exposed to moisture, the spores produce hyphae, which can be quantitatively observed using optical microscope. The degree of branching of hyphae can be used as outcome of the assay and correlated with contaminants present in the soil and/or water. The small seed germination assay (b) (FIG. 6) also contains a glass slide with two layers of fitted blotter paper strips (25): first layer of fitied blotter paper is the strip without holes, and a second blotter paper strip which has holes of about 2-3 mm in diameter as shown in FIG. 6. Plant seeds (26) are placed in one or more holes, and the assembly is then covered with a standard laboratory cover slip and held together by a non-toxic retaining ring or a glue. […]

SMILES: [AsH3] [arsenic]
- root growth response to arsenic exposure (horizontally grown seedlings): not evident
- root growth response to arsenic exposure (vertically oriented seedlings): hermetic response (enhanced growth at low concentrations of a toxicant)
